Data: patent publication US8093231B2, “Sulfonylethyl phosphorodiamidates” (Telik, Inc., priority 2004, dated 2012)

Tests used:
Format in all cases: cell-based, human
MX-1 (breast carcinoma) = assay: Cytotoxicity/growth inhibition assay, MX-1; details: MX-1 cells, 3 days culture, CellTiter-Glo, 0.1-200 μM tested; read-out: IC50 (MX-1)
Procedure, shortened: (§1)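 Test compounds in DMSO (0.1–200 μM; final DMSO 0.5%) added to freshly diluted cells (3×10^3 cells/mL MX-1 and DLD-1, 6×10^3 cells/mL LNCap), triplicate wells. Cultured ~three doubling times (3 days MX-1, 4 days DLD-1/LNCap). CellTiter-Glo luminescence, 15 min room temperature; growth expressed as % of DMSO solvent control.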

[1] = tested on: LNCap (prostate carcinoma); assay: Cytotoxicity/growth inhibition assay, LNCap; details: LNCap cells, 4 days culture, CellTiter-Glo, 0.1-200 μM tested; read-out: IC50 (LNCap)
Procedure, shortened: as §1

[2] = tested on: DLD-1 (colorectal adenocarcinoma); assay: Cytotoxicity/growth inhibition assay, DLD-1; details: DLD-1 cells, 4 days culture, CellTiter-Glo, 0.1-200 μM tested; read-out: IC50 (DLD-1)
Procedure, shortened: as §1

Row | Compound | IC50 (MX-1 (breast carcinoma)) [µM] | IC50 [1] [µM] | IC50 [2] [µM]
1 | O=P(OCCS(=O)(=O)c1ccc(Cl)c(Cl)c1)(N(CCCl)CCCl)N(CCCl)CCCl [Compound 112A] | 1 | 6.3 | 0.8
2 | O=P(OCCS(=O)(=O)c1ccc(-c2ccccc2)cc1)(N(CCCl)CCCl)N(CCCl)CCCl [Compound 113A] | 10.9 | 18.4 | 2.2
3 | CC(C)(C)c1ccc(S(=O)(=O)CCOP(=O)(N(CCCl)CCCl)N(CCCl)CCCl)cc1 [Compound 114A] | 4.7 | 8.2 | 1.9
4 | COc1ccc(S(=O)(=O)CCOP(=O)(N(CCCl)CCCl)N(CCCl)CCCl)cc1 [Compound 115A] | 5.3 | 18.5 | 4.1
5 | O=P(OCCS(=O)(=O)c1cccc(C(F)(F)F)c1)(N(CCCl)CCCl)N(CCCl)CCCl [Compound 116A] | 3.1 | 6.6 | 2.2
6 | O=P(OCCS(=O)(=O)c1ccccc1)(N(CCCl)CCCl)N(CCCl)CCCl [Compound 117A] | 4.1 | 16.3 | 4
7 | O=C(O)c1ccccc1S(=O)(=O)CCOP(=O)(N(CCCl)CCCl)N(CCCl)CCCl [Compound 118A] | 37.2 | ≥ 200 | 10.9
8 | O=C(O)c1cccc(S(=O)(=O)CCOP(=O)(N(CCCl)CCCl)N(CCCl)CCCl)c1 [Compound 119A] | 32.5 | 189 | 9.8
9 | O=P(OCCS(=O)(=O)c1ccncc1)(N(CCCl)CCCl)N(CCCl)CCCl [Compound 120A] | 7.1 | 12.2 | 3.6
10 | O=P(OCCS(=O)(=O)c1nc2ccccc2s1)(N(CCCl)CCCl)N(CCCl)CCCl [Compound 121A] | 2.6 | 8.5 | 1.2
11 | Cn1ccnc1S(=O)(=O)CCOP(=O)(N(CCCl)CCCl)N(CCCl)CCCl [Compound 122A] | 4.3 | 23 | 3.1
12 | Cc1cnc(S(=O)(=O)CCOP(=O)(N(CCCl)CCCl)N(CCCl)CCCl)nc1 [Compound 123A] | 9 | 25.1 | 5.9
13 | O=P(OCCS(=O)(=O)c1ccccn1)(N(CCCl)CCCl)N(CCCl)CCCl [Compound 124A] | 7.2 | 15.5 | 6
14 | O=P(OCCS(=O)(=O)c1ncnc2[nH]cnc12)(N(CCCl)CCCl)N(CCCl)CCCl [Compound 125A] | 22.5 | 45.1 | 7.8
15 | O=C(O)c1ncccc1S(=O)(=O)CCOP(=O)(N(CCCl)CCCl)N(CCCl)CCCl [Compound 126A] | 20.3 | 126 | 6.7
16 | O=P(OCCS(=O)(=O)c1ncc2nc[nH]c2n1)(N(CCCl)CCCl)N(CCCl)CCCl [Compound 127A] | 15.2 | ≥ 200 | 5.8
17 | Cc1cccc(CS(=O)(=O)CCOP(=O)(N(CCCl)CCCl)N(CCCl)CCCl)c1 [Compound 129A] | 7.1 | 16.3 | 5.4
18 | Cc1ccc(CS(=O)(=O)CCOP(=O)(N(CCCl)CCCl)N(CCCl)CCCl)cc1 [Compound 130A] | 6.5 | 22 | 5.1
19 | O=P(OCCS(=O)(=O)Cc1ccc(Cl)cc1)(N(CCCl)CCCl)N(CCCl)CCCl [Compound 131A] | 5.2 | 6.9 | 3.6
20 | O=P(OCCS(=O)(=O)Cc1ccc(F)cc1)(N(CCCl)CCCl)N(CCCl)CCCl [Compound 132A] | 6.1 | 16.3 | 5
21 | O=P(OCCS(=O)(=O)Cc1cccc(C(F)(F)F)c1)(N(CCCl)CCCl)N(CCCl)CCCl [Compound 133A] | 2.7 | 8.2 | 2.6
22 | O=P(OCCS(=O)(=O)Cc1ccc(Cl)c(Cl)c1)(N(CCCl)CCCl)N(CCCl)CCCl [Compound 134A] | 1.5 | 4.8 | 1.2
23 | O=P(OCCS(=O)(=O)Cc1ccc(Cl)cc1Cl)(N(CCCl)CCCl)N(CCCl)CCCl [Compound 135A] | 3.5 | 19.1 | 0.6
24 | O=P(OCCS(=O)(=O)Cc1ccccc1Cl)(N(CCCl)CCCl)N(CCCl)CCCl [Compound 136A] | 2.8 | 21.4 | 1.7
25 | CC(C)(C)c1ccc(CS(=O)(=O)CCOP(=O)(N(CCCl)CCCl)N(CCCl)CCCl)cc1 [Compound 137A] | 1.7 | 22.3 | 0.8
26 | O=[N+]([O-])c1cccc(CS(=O)(=O)CCOP(=O)(N(CCCl)CCCl)N(CCCl)CCCl)c1 [Compound 138A] | 16.8 | 12 | 1.8

Row | Compound | IC50 (MX-1 (breast carcinoma)) [µM] | IC50 [1] [µM] | IC50 [2] [µM]
27 | O=C(O)c1ccc(CS(=O)(=O)CCOP(=O)(N(CCCl)CCCl)N(CCCl)CCCl)cc1 [Compound 139A] | 25.3 | 82.1 | 9.3
28 | COC(=O)c1ccc(CS(=O)(=O)CCOP(=O)(N(CCCl)CCCl)N(CCCl)CCCl)cc1 [Compound 140A] | 11.9 | 23.3 | 5.9
29 | Nc1cccc(CS(=O)(=O)CCOP(=O)(N(CCCl)CCCl)N(CCCl)CCCl)c1 [Compound 141A] | 17.3 | 45.9 | 12.9
30 | O=C(O)CCC(=O)Nc1cccc(CS(=O)(=O)CCOP(=O)(N(CCCl)CCCl)N(CCCl)CCCl)c1 [Compound 142A] | 22.5 | 114 | 18.1
31 | NCC(=O)Nc1cccc(CS(=O)(=O)CCOP(=O)(N(CCCl)CCCl)N(CCCl)CCCl)c1 [Compound 143A] | 15.9 | 110 | 10.9
32 | CC(C)(C)OC(=O)NCC(=O)Nc1cccc(CS(=O)(=O)CCOP(=O)(N(CCCl)CCCl)N(CCCl)CCCl)c1 [Compound 144A] | 5.7 | 17.9 | 4
33 | N[C@@H](CCC(=O)Nc1cccc(CS(=O)(=O)CCOP(=O)(N(CCCl)CCCl)N(CCCl)CCCl)c1)C(=O)O [Compound 147A] | 12.2 | 63.9 | 11.1
34 | N#Cc1ccc(CS(=O)(=O)CCOP(=O)(N(CCCl)CCCl)N(CCCl)CCCl)cc1 [Compound 153A] | 3 | 6.9 | 1.8
35 | O=C(c1ccc(CS(=O)(=O)CCOP(=O)(N(CCCl)CCCl)N(CCCl)CCCl)cc1)N1CCOCC1 [Compound 154A] | 5.5 | 26.2 | 5.8
36 | CN(C)C(=O)c1ccc(CS(=O)(=O)CCOP(=O)(N(CCCl)CCCl)N(CCCl)CCCl)cc1 [Compound 155A] | 2.6 | 42.4 | 10.7
37 | O=C(c1ccc(CS(=O)(=O)CCOP(=O)(N(CCCl)CCCl)N(CCCl)CCCl)cc1)N1CCCC1 [Compound 156A] | 4.8 | 31.4 | 3.5
38 | CCN(CC)C(=O)c1ccc(CS(=O)(=O)CCOP(=O)(N(CCCl)CCCl)N(CCCl)CCCl)cc1 [Compound 157A] | 3.1 | 29.6 | 2.3
39 | CN(CCO)C(=O)c1ccc(CS(=O)(=O)CCOP(=O)(N(CCCl)CCCl)N(CCCl)CCCl)cc1 [Compound 158A] | 35.4 | 85.2 | 17.5
40 | O=C(c1ccc(CS(=O)(=O)CCOP(=O)(N(CCCl)CCCl)N(CCCl)CCCl)cc1)N1CCCCC1 [Compound 159A] | 5.3 | 24.4 | 3.5
41 | O=C(NCCO)c1ccc(CS(=O)(=O)CCOP(=O)(N(CCCl)CCCl)N(CCCl)CCCl)cc1 [Compound 160A] | 33.2 | 104 | 13.9
42 | O=C(NCc1ccccc1)c1ccc(CS(=O)(=O)CCOP(=O)(N(CCCl)CCCl)N(CCCl)CCCl)cc1 [Compound 161A] | 7.4 | 11.7 | 3.7
43 | NC(=O)c1ccc(CS(=O)(=O)CCOP(=O)(N(CCCl)CCCl)N(CCCl)CCCl)cc1 [Compound 162A] | 7.1 | 55.1 | 4.7
44 | CCNC(=O)c1ccc(CS(=O)(=O)CCOP(=O)(N(CCCl)CCCl)N(CCCl)CCCl)cc1 [Compound 163A] | 4.8 | 28.5 | 4.8
45 | N#CCNC(=O)c1ccc(CS(=O)(=O)CCOP(=O)(N(CCCl)CCCl)N(CCCl)CCCl)cc1 [Compound 164A] | 10.7 | 45.9 | 5.8
46 | O=C(c1ccc(CS(=O)(=O)CCOP(=O)(N(CCCl)CCCl)N(CCCl)CCCl)cc1)N1CCC(O)C1 (stereo not drawn) [Compound 165A] | 21.9 | 114 | 8
47 | O=C(c1ccc(CS(=O)(=O)CCOP(=O)(N(CCCl)CCCl)N(CCCl)CCCl)cc1)N1CCC(O)CC1 [Compound 166A] | 20.5 | 90.2 | 6.3
48 | CNC(=O)c1ccc(CS(=O)(=O)CCOP(=O)(N(CCCl)CCCl)N(CCCl)CCCl)cc1 [Compound 168A] | 7.9 | 24.2 | 5.7
49 | O=C(c1ccc(CS(=O)(=O)CCOP(=O)(N(CCCl)CCCl)N(CCCl)CCCl)cc1)N(CCO)CCO [Compound 169A] | 34.5 | 144 | 7.6
50 | NC(=O)C1CCN(C(=O)c2ccc(CS(=O)(=O)CCOP(=O)(N(CCCl)CCCl)N(CCCl)CCCl)cc2)CC1 [Compound 170A] | 31.4 | ≥ 200 | 10.8
51 | O=C(NCc1cccnc1)c1ccc(CS(=O)(=O)CCOP(=O)(N(CCCl)CCCl)N(CCCl)CCCl)cc1 [Compound 174A] | 18.8 | 55.8 | 14.3
